# Test results published in patent US20240336638A1, “IMIDAZOLE COMPOUND, AND INTERMEDIATE AND APPLICATION THEREOF” (priority 2021, published 2024).
# Test system: AA-induced platelet aggregation
# Assay: Inhibitory effect on AA-induced platelet aggregation in rats in vitro (washed platelets)
# Type: cell-based, rat
# Conditions: 1*10^−4 M
# Experimental: Several experimental groups were established, including a blank control group, an AA (arachidonic acid) model control group, and various test compounds. Each test compound had three concentration groups: 10^−3 M, 10^−4 M, and 10^−5 M. The data from the blank and model control group were shared among the different drug concentration groups as a control.
# Male SD rats were anesthetized with 3% chloral hydrate (300 mg/kg) through intraperitoneal injection. After being fixed in a supine position, the skin of the neck was cut about 3 cm, bluntly separated with a hemostat, and the trachea was exposed after the common carotid artery was separated. The distal end of the common carotid artery was ligated with a fine thread, and the proximal end was clamped with an arterial clamp for vascular intubation. After the intubation was fixed, the artery clamp was opened, and the blood was placed into a blood collection tube containing 3.8% trisodium citrate so that the blood was mixed well with the 3.8% trisodium citrate in a volume ratio of 9:1.
# The prepared anticoagulant blood was mixed well and centrifuged for 10 minutes at 500 rpm, then the upper layer of plasma was aspirated to obtain platelet-rich plasma (PRP), and the PRP was centrifuged again for 5 minutes at 3,000 rpm. The supernatant was discarded, and the platelet precipitate was obtained, which was washed once with Ca^2+-free HEPES-Tyrode's buffer, then centrifuged at 3,000 rpm for 5 minutes. The supernatant was discarded, and the platelets were resuspended with Ca^2+-free HEPES-Tyrode's buffer to obtain the washed platelets.
# First, 300 μL of Ca^2+-containing HEPES-Tyrode's solution was taken into the test cup, put into the test wells, and calibrated by pressing the “PPP” key. Subsequently, 240 μL of the washed platelets were added to the test cup, then added with 30 μL of different concentrations of drug solution, incubated for 10 minutes at 37° C. in a preheated bath, and then put into the test wells. 3 μL of 100× CaCl2 solution (final concentration of 0.2 g/L) and 30 μL of inducer (final concentration of AA of 800 μM) were added to the test wells, and then the “Start” key was pressed immediately. The maximum aggregation rate was recorded every 60 s. The measurement was repeated three times for each concentration for 10 minutes, and the aggregation curve was plotted.
# The platelet aggregation inhibition rate was calculated with the following formula:
# Inhibition rate (%)=(maximum aggregation rate in the model control group−maximum aggregation rate in the administration group)/maximum aggregation rate in the model control group×100%
# All data were expressed as mean±standard deviation (mean±SD). SPSS 22.0 software was used for statistical analysis of the data. Intergroup data were analyzed using one-way ANOVA, with P<0.05 considered as statistically significant and P<0.01 considered as highly significant.
row,Structure (SMILES),significant inhibition of AA-induced platelet aggregation
1,"O=C(O)[C@H]1C[C@@H]1c1ccc(Cn2cnc(F)c2)c(Cl)c1 [Compound 38, (1S,2S)-2-(3-Chloro-4-((4-fluoro-1H-imidazol-1-yl)methyl)phenyl)cyclopropane-1-carboxylic acid]",can significantly inhibit
2,"O=C(O)[C@H]1C[C@@H]1c1ccc(Cn2cnc(F)c2)cc1F [Compound 37, (1S,2S)-2-(2-Fluoro-4-((4-fluoro-1H-imidazol-1-yl)methyl)phenyl)cyclopropane-1-carboxylic acid]",can significantly inhibit
3,"Cc1cc(Cn2cnc(F)c2)ccc1[C@@H]1C[C@H]1C(=O)O [Compound 5, (1R,2R)-2-(4-((4-Fluoro-1H-imidazol-1-yl)methyl)-2-methylphenyl)cyclopropane-1-carboxylic acid]",can significantly inhibit
4,"Cc1cc([C@@H]2C[C@H]2C(=O)O)ccc1Cn1cnc(Cl)c1 [Compound 4, (1R,2R)-2-(4-((4-Chloro-1H-imidazol-1-yl)methyl)-3-methylphenyl)cyclopropane-1-carboxylic acid]",can significantly inhibit
5,"O=C(O)[C@@H]1C[C@H]1c1ccc(Cn2cnc(Cl)c2)c(F)c1 [Compound 14, (1R,2R)-2-(4-((4-Chloro-1H-imidazol-1-yl)methyl)-3-fluorophenyl)cyclopropane-1-carboxylic acid]",can significantly inhibit
6,"O=C(O)[C@H]1C[C@@H]1c1ccc(Cn2cnc(Cl)c2)cc1F [Compound 33, (1S,2S)-2-(4-((4-Chloro-1H-imidazol-1-yl)methyl)-2-fluorophenyl)cyclopropane-1-carboxylic acid]",can significantly inhibit
7,"O=C(O)[C@H]1C[C@@H]1c1ccc(Cn2cnc(Cl)c2)c(F)c1 [Compound 34, (1S,2S)-2-(4-((4-Chloro-1H-imidazol-1-yl)methyl)-3-fluorophenyl)cyclopropane-1-carboxylic acid]",can significantly inhibit
8,"Cc1cc([C@H]2C[C@@H]2C(=O)O)ccc1Cn1cnc(Cl)c1 [Compound 24, (1S,2S)-2-(4-((4-Chloro-1H-imidazol-1-yl)methyl)-3-methylphenyl)cyclopropane-1-carboxylic acid]",can significantly inhibit
9,"O=C(O)[C@H]1C[C@@H]1c1ccc(Cn2cnc(Cl)c2)c(Cl)c1 [Compound 31, (1S,2S)-2-(3-Chloro-4-((4-chloro-1H-imidazol-1-yl)methyl)phenyl)cyclopropane-1-carboxylic acid]",can significantly inhibit
10,"Cc1cc([C@H]2C[C@@H]2C(=O)O)ccc1Cn1cnc(F)c1 [Compound 28, (1S,2S)-2-(4-((4-Fluoro-1H-imidazol-1-yl)methyl)-3-methylphenyl)cyclopropane-1-carboxylic acid]",can significantly inhibit
11,"O=C(O)[C@H]1C[C@@H]1c1ccc(Cn2ccnc2)c(F)c1 [Compound 35, (1S,2S)-2-(4-((1H-Imidazol-1-yl)methyl)-3-fluorophenyl)cyclopropane-1-carboxylic acid]",can significantly inhibit
12,"Cc1cc(Cn2ccnc2)ccc1[C@@H]1C[C@H]1C(=O)O [Compound 7, (1R,2R)-2-(4-((1H-Imidazol-1-yl)methyl)-2-methylphenyl)cyclopropane-1-carboxylic acid]",can significantly inhibit
13,"Cc1cc(Cn2ccnc2)ccc1[C@H]1C[C@@H]1C(=O)O [Compound 27, (1S,2S)-2-(4-((1H-Imidazol-1-yl)methyl)-2-methylphenyl)cyclopropane-1-carboxylic acid]",can significantly inhibit
14,"Cc1cc([C@@H]2C[C@H]2C(=O)O)ccc1Cn1cnc(F)c1 [Compound 8, (1R,2R)-2-(4-((4-Fluoro-1H-imidazol-1-yl)methyl)-3-methylphenyl)cyclopropane-1-carboxylic acid]",can significantly inhibit
15,"Cc1cc(Cn2cnc(F)c2)ccc1[C@H]1C[C@@H]1C(=O)O [Compound 25, (1S,2S)-2-(4-((4-Fluoro-1H-imidazol-1-yl)methyl)-2-methylphenyl)cyclopropane-1-carboxylic acid]",can significantly inhibit
16,"O=C(O)[C@H]1C[C@@H]1c1ccc(Cn2ccnc2)cc1 [Compound 20, (1S,2S)-2-(4-((1H-Imidazol-1-yl)methyl)phenyl)cyclopropane-1-carboxylic acid]",can significantly inhibit
